In patent US20050124594A1, “Method of treatment” (priority 1998, published 2005):

How the values were obtained:
[1] = tested on: choroidal neovascularisation (CNV); assay: Case report: prophylactic triamcinolone to the orbital floor at cataract surgery in a high risk eye; type: in vivo, human
Excerpt: A patient in whom prophylactic treatment was used was a person. There was marked macula degeneration in both eyes. They underwent cataract surgery late in July 1995 and developed neovascularisation of the right macula within three weeks. They also had cataract in the left eye but surgery was deferred for fear of developing the same complication. In the left macula there were greater than 5 drusen, some of them larger than 500 μm, and coarse pigment clumping, all high risk features. The cataract in the left eye continued to advance. By August 1997 it was very dense, reducing the visual acuity to 6/24. In spite of the high risk of neovascularisation, they underwent surgery in October 1997. As a prophylactic measure to reduce the risk of subsequent CNV, they received 40 mg of triamcinolone to the orbital floor beneath the eye at the time of surgery. The visual acuity improved to 6/12. They progressed well until June 1998 when they developed left CNV. By this time the effect of the triamcinolone had worn off.

[2] = Clinical observations of side effects of intravitreal triamcinolone; type: in vivo, human
Excerpt: Intravitreal triamcinolone presents a manageable side effect profile. Of the several hundred patients treated through the Sydney Eye Hospital over the last three years, no case of endophthalmitis, retinal detachment or vitreous haemorrhage has been reported. The commonest side effect is a modest elevation of the intraocular pressure of around 5 mmHg. This has been controlled with glaucoma medication where necessary, although if the optic nerve is not compromised and the pressure is less than 25 mmHg it is often reasonable to observe without treatment. The pressure invariably returns to normal after the drug wears off, which is usually after approximately 6 months.

[3] = tested on: choroidal neovascularisation (CNV); assay: Illustrative case: intravitreal steroid treatment for the prevention of neovascularisation in a patient at high risk; type: in vivo, human
Experimental: This case illustrates how intravitreal steroid treatment might be used to prevent CNV in a high risk eye.
A patient presents with recent loss of vision in their right eye. Retinal haemorrhages and exudation are seen in the right macula. […] This is treated on its merits, but the patient is already legally blind (visual acuity less than 6/60) and likely to remain so.
The patient is otherwise healthy and looks as if they might well live another ten or twenty years.
It is explained to the patient that it has been well shown that the risk of developing neovascularisation in their left eye is roughly 90% over the next five years. Should this occur, the chance of saving reading and driving vision with conventional treatments would be less than 25%. The patient is informed that, since the formation of new blood vessels appears in this disease to be linked to chronic, low grade inflammation inside the eye, we believe that an injection of steroid into the eye may reduce the risk of developing neovascularisation in their left eye. […] Serious side effects of the injection are rare. The patient returns in one week, having considered their options, and elects to receive the treatment.
The patient's left eye is anaesthetised and sterilised with topical medications. An injection into the vitreous of 4 mg of triamcinolone (0.1 mL of a 40 mg/mL solution) is performed. The patient is reviewed at 1 and 6 weeks after the injection, then at 3, 6 and 12 months. […] A second injection of triamcinolone is instilled, with the patients consent, and they are reviewed with the same frequency as after the first injection. Two years after the first injection the patient's visual acuity remains 6/9. Further treatments are deferred and the patient is reviewed every 6 months.

[4] = tested on: choroidal neovascularisation in age-related macular degeneration; details: introduced into the vitreous; cited from earlier work
[5] = 12 months after intravitreal injection of 4 mg

Question: For “9-fluoro-11,21-dihydroxy-16,17-[1-(methylethylidine)bis (oxy)]pregna-1,4-diene-3,20-dione [triamcinolone]”, which “formation of CNV after surgery” value ([1]; 40 mg to the orbital floor October 1997, left CNV developed June 1998) is on record?
Answer: delayed the formation of CNV after surgery

Question: What about the “visual acuity after cataract surgery” value ([1]; person, left eye, 40 mg to the orbital floor at surgery, acuity 6/24 before surgery) of the same substance?
Answer: 6/12

Question: What about the “cataract in the treated eye” value ([2]; follow-up to 18 months) of the same substance?
Answer: this has not been a problem

Question: What about the “elevation of the intraocular pressure (commonest side effect)” value ([2]; intravitreal) of the same substance?
Answer: around 5 mmHg

Question: What about the “endophthalmitis, retinal detachment or vitreous haemorrhage” value ([2]; several hundred patients treated intravitreally over three years) of the same substance?
Answer: no case

Question: And the “complications of the procedure” value [3, 5]?
Answer: no complications of the procedure have ensued

Question: And the evidence of neovascularisation [3, 5]?
Answer: without evidence clinically or angiographically of neovascularisation

Question: What about the visual acuity ([3]; 12 months after intravitreal injection of 4 mg, baseline 6/9) of the same substance?
Answer: 6/9

Question: And the visual acuity ([3]; two years after the first injection, second injection at 12 months)?
Answer: 6/9

Question: And the exudation [4]?
Answer: control and resorbtion of exudation

Question: And the “resident immune cell activity” value [4]?
Answer: modulates the resident immune cell activity

Question: What about the visual acuity [4] of the same substance?
Answer: improved visual acuity
